Test [1] concerns Trichophyton mentagrophytes. Put plainly: Antifungal activity against Trichophyton mentagrophytes. The format is functional, organism-based.
Test [2] concerns Micrococcus luteus. Put plainly: Antibacterial activity against Micrococcus luteus. Format: functional.
The subject of test [3] is Escherichia coli. Put plainly: Antibacterial activity against Escherichia coli. Format: functional.
Test [4] relates to Bacillus subtilis. Put plainly: Antibacterial activity against Bacillus subtilis. Format: functional.
Test [5] relates to Candida albicans. Put plainly: Antifungal activity against Candida albicans. Format: functional, organism-based.
Test [6] has as its system Aspergillus niger. Put plainly: Antifungal activity against Aspergillus niger. Format: functional, organism-based.
Test [7] has as its system Staphylococcus aureus. The experiment in a line: Antibacterial activity against Staphylococcus aureus. Format: functional.
Test [8] concerns Cryptococcus neoformans. Put plainly: Antifungal activity against Cryptococcus neoformans. The format is functional, organism-based.

This note sets out measurements from ChEMBL document CHEMBL2311258, “Manzamenones L-N, new dimeric fatty-acid derivatives from an Okinawan marine sponge Plakortis sp” (Bioorg Med Chem Lett, 2013).

Converted amounts (≈) assume the structure as drawn.

In the case of `CCCCCCCCCCCCCCCCC1=C[C@H](C(=O)O)[C@H]2C(=O)C(C(=O)OC)=C(CCCCCCCCCCCCCCCC)[C@@]2(O)[C@H]1C(=O)OC`, the IC50 in test [1] was over 32 µg/mL; in test [5], 32 µg/mL (≈ 42.2 µM); in test [6], over 32 µg/mL; in test [8] it was 8 µg/mL (≈ 10.5 µM). The minimum inhibitory concentration (MIC) in test [2] was over 32 µg/mL; in test [3] it was 32 µg/mL (≈ 42.2 µM); in test [4] it was over 32 µg/mL; in test [7], 16 µg/mL (≈ 21.1 µM).
As to `CCCCCCCCCCCCCCCCC1=C[C@H](C(=O)OC)[C@H]2C(=O)C(C(=O)OC)=C(CCCCCCCCCCCCCCCC)[C@@]2(O)[C@H]1C(=O)OC` (racemic), the half-maximal inhibitory concentration (IC50) in test [1], in test [5], in test [6] and in test [8] was over 32 µg/mL each time. Moreover, the MIC in test [2], in test [3], in test [4] and in test [7] was over 32 µg/mL each time.
As to `CCCCCCCCCCCCCCCCC1=C(C(=O)OC)C2=C(C(=O)[C@H](C(=O)OC)[C@H]2CCCCCCCCCCCCCCCC)C(C(=O)OC)C1` (some centres undefined) [MANZAMENONE N], the IC50 in test [1] was over 32 µg/mL; in test [5], 32 µg/mL (≈ 42.3 µM); in test [6], over 32 µg/mL; in test [8], 4 µg/mL (≈ 5.28 µM). Further, the MIC in test [2] was over 32 µg/mL; in test [3], 32 µg/mL (≈ 42.3 µM); in test [4] it was over 32 µg/mL; in test [7], over 32 µg/mL.

The term IC50 denotes the concentration at which inhibition is half-maximal. The low end stands for greater potency in that assay, the high end for weaker potency in that assay. Usually MIC stands for the smallest concentration in the dilution series that meets the test's criterion for growth inhibition. Low readings indicate a more susceptible organism, high ones a less susceptible organism.
